Test results taken from patent US20070049538A1, “METHODS FOR USING CUCURBITACIN COMPOUNDS” (SOUTH DAKOTA STATE UNIVERSITY, priority 2005, published 2007).
Entries after “also recorded” stand apart in the source; their conditions may differ.

Assays:
[1] = test system: HSC-T6 cells; assay: Serum-driven HSC-T6 proliferation, experiment 3 (24 h, proliferating cells); format: cell-based, rat; details: HSC-T6, 24 h, proliferating cells; read-out: Experiment 3 EC50 (A)
[2] = test system: HSC-T6 cells; assay: Serum-driven HSC-T6 proliferation, experiment 2 (24 h, starved/quiescent cells); format: cell-based, rat; details: HSC-T6, 24 h, starved (quiescent) cells; read-out: Experiment 2 EC50
Procedure: To overcome this problem, the amount of incubation time was increased to 24 h, and cucurbitacin activity measured on starved (Exp. 2) or proliferative (Exp. 3) cells (Table 8). Cells turned quiescent when serum was not supplemented for one day (Exp. 2). Activity of a few compounds was monitored on quiescent cells, and their activity compared to the ones measured on proliferating cells (Exp. 3).
We established several experimental conditions such as 4 hours of incubation time with cucurbitacin, and 2 day cell incubation with fresh media after challenging with cucurbitacin (Exp. 1). Other experiments involved addition of cucurbitacin for 24 hours over starved cells (Exp. 2) vs. proliferating cells (Exp. 3), and one day incubation of cells with fresh media after challenge. The 4 hour incubation period with cucurbitacin triggered anti-proliferation effect. This effect, however, was hindered by a second cycle of cell proliferation during the two-day cell growth period (see silybin, E and I glucosides, and for I-nPr). […] Because of that, the challenge time was increased to 24 hours (Exp. 2 and 3).
In experiment 3, only 40% of the cells divided. The ratio of EC50 values for exp. 2 and exp. 3 varied between 3.6 and 12.7. This may indicate differential cytotoxicity of silybin and cucurbitacin analogs over quiescent and active stellate cells. In other words, compounds show higher anti-proliferative activity on active cells than on quiescent cells.

[3] = test system: HSC-T6 cells; assay: Serum-driven HSC-T6 proliferation, experiment 1 (4 h challenge, two days drug-free growth); format: cell-based, rat; details: for EC50: HSC-T6, 4 h challenge, then two days drug-free media
[4] = DPPH* Stable Free Radical Scavenging Assay; details: at 50 μM
Procedure: Cucurbitacin antioxidant activity was studied first by the DPPH* Stable Free Radical Scavenging Assay (Cotelle et al., Free radical Biology & Medicine 20(1): 35-43, 1996). Experimental conditions were optimized on the standard compound ascorbic acid. Data indicated 30% activity at 50 μM concentration, and 100% activity at 100 μM for ascorbic acid. While the original assay required 10 minutes incubation time for the reaction to occur, this time was increased up to 30 minutes in case cucurbitacin were reacting slower than other reagents.

[5] = target: hyaluronidase (Bos taurus, UniProt Q2YDK3); assay: Anti-Hyaluronidase Assay; format: biochemical; details: up to 71.68 mM
Sequence of hyaluronidase (Q2YDK3 entry or part of it): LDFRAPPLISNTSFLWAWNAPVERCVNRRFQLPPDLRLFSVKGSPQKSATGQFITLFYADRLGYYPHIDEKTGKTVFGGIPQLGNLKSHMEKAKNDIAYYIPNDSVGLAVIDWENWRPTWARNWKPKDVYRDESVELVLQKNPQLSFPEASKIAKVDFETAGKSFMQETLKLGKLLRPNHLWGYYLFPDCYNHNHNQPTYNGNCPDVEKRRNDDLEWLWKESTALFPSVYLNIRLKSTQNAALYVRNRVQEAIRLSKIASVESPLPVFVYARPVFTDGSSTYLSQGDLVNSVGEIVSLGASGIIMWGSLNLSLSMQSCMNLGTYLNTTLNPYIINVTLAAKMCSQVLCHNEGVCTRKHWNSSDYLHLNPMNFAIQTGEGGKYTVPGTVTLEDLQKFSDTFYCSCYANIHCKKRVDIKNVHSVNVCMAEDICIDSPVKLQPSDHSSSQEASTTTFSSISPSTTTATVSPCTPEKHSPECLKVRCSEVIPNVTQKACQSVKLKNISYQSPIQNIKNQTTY
Excerpt: Cucurbitacin anti-inflammatory activity was monitored by the Anti-Hyaluronidase Assay (Facino et al., Il Farmaco 48: 1447-1461, 1993 and Linker, A., Hyaluronidase. In: Methods of enzymatic analysis. Vol. 4., Bergmeyer, H. U. (Editor), Verlag Chemie GmbH, Berlin, 256-262, 1984). This assay was validated using the standard compound phenylbutazone.

[6] = ABTS*+ Radical Cation Decolorization Assay; details: at 50 μM, 100 μM and 1.8 mM, up to 2 hours
Procedure: Cucurbitacin B activity was monitored at 50 μM, 100 μM, and 1.8 mM. The time interval was expanded up to 2 hours in case cucurbitacin B was reacting slowly.

[7] = in vivo; cited from earlier work

Molecule: CC(=O)OC(C)(C)/C=C/C(=O)[C@](C)(O)[C@H]1[C@H](O)C[C@@]2(C)[C@@H]3CC=C4[C@@H](C=C(O[C@@H]5O[C@H](CO)[C@@H](O)[C@H](O)[C@H]5O)C(=O)C4(C)C)[C@]3(C)C(=O)C[C@]12C [E-Gluc, cucurbitacin E glucoside]
- EC50 [1]: 3.28 µM
- EC50 [2]: 20 µM
- anti-proliferation activity ([3]; Experiment 1, FIG. 7, 150 μM): about 38%
- Experiment 1 anti-proliferation activity ([3]; measured at 100 μM): ˜46%^a^

Molecule: CC(=O)OC(C)(C)/C=C/C(=O)[C@](C)(O)[C@H]1[C@H](O)C[C@@]2(C)[C@@H]3CC=C4[C@H](C[C@H](O)C(=O)C4(C)C)[C@]3(C)C(=O)C[C@]12C [B, cucurbitacin B]
- EC50 [1]: 0.02 µM
- DPPH activity [4]: did not indicate any activity
- anti-hyaluronidase activity [5]: no activity; also recorded: did not demonstrate anti-hyaluronidase activity
- ABTS activity [6]: No activity was observed
- EC50 [3]: 1.18 µM
- protective and preventive activity [7]: significantly reducing serum enzymes level, steatosis, inflammation, and experimental cholestasis

Molecule: cucurbitacin E
- EC50 [1]: 0.04 µM
- EC50 [3]: 0.86 µM
- protective and preventive activity [7]: significantly reducing serum enzymes level, steatosis, inflammation, and experimental cholestasis

Molecule: Cucurbitacin E-Me ether
- EC50 [1]: 0.08 µM
- EC50 [3]: 3.05 µM
